Marks after values point to notes of the source that are not given here. Positions of bridges follow the written chain, without caps; N, C: chain ends. Non-standard residues stand in square brackets, D forms with d. Residues, ends and D or L forms follow the SMILES beside them. 2Abz = Nc1ccccc1C(=O)O; Dap = NC[C@H](N)C(=O)O

In series [1] the test system is mice. Briefly: Opioid-induced hyperalgesia, 48 °C warm water tail-withdrawal assay. The series is classed as in vivo, mouse. The settings on record: for Day 5 tail withdrawal latency, 48 °C warm water stimulus: after twice daily dosing for 4 days (morphine 10 mg/kg, CycloAnt 3 mg/kg i.p.), before day 5 dose, day 1 baselines 10 ± 1.14 s (morphine group), 9.1 ± 0.68 s (CycloAnt group), mean ± SEM, SEM; for Opioid-induced hyperalgesia after chronic administration: twice daily for 4 days, morphine 10 mg/kg, CycloAnt 3 mg/kg i.p., 48 °C. As for the experimental part: The 48 °C warm water tail-withdrawal assay was performed as previously described, with the latency to withdraw the tail taken as the end point. The water temperature of 48 °C was selected for this work to ensure a moderate tail-withdrawal response, with a measurable decrease in withdrawal time possible, but also a significant temperature for hyperalgesic testing. […] After determining control latencies on day 1, mice received chronic morphine (10 mg/kg, i.p.) or CycloAnt (3 mg/kg, i.p.) treatment twice a day for 4 days, as described below. […] Mice were then tested prior to treatment on day 5 for evidence of induced hyperalgesia.

In series [2] the test system is mice. Put plainly: Naloxone-precipitated opioid withdrawal (physical dependence). The series is classed as in vivo, mouse. The settings on record: for Forepaw Tremor: CycloAnt 3 mg/kg (n = 9) or morphine 10 mg/kg (n = 10) i.p. twice daily 4 days + day 5, naloxone 10 mg/kg i.p. 120 min later, scored 15 min, average; for Forepaw Licking Frequency / Jumping Frequency / Number of soft stools / Presence of diarrhea / Rearing Frequency / Straightening / Teeth Chattering Frequency / Wet Dog Shakes: as E25. Here is the method: (§1) Mice were randomly assigned to one of three groups and given saline (i.p.; n = 10), morphine (10 mg/kg, i.p.; n = 10) or CycloAnt (3 mg/kg, i.p.; n = 9) twice daily for 4 days, and once more on the morning of the fifth day. Mice were then tested in the 55 °C WWTW assay to assess for the loss of therapeutic efficacy (antinociceptive tolerance; see above). Two hours after this test, naloxone (10 mg/kg, i.p.) was administrated to all mice to precipitate opioid withdrawal. Mouse activity was digitally recorded and evaluated later for an established record of withdrawal behaviors for 15 min [39]. Immediately upon injection of naloxone, all mice were scored for number of jumps, forepaw tremor, wet dog shakes, straightening, rearing, forepaw licking, teeth chattering, and the presence (as +/−) and number of soft stools.

Series [3] has as its system C57BL/6J mice. Put plainly: Respiration rate in CLAMS apparatus. The series is classed as in vivo, mouse. Conditions: CycloAnt 3.0 or 10.6 mg/kg i.p.; morphine 10 or 30 mg/kg i.p.; 120 min period. Here is the method:
(§2) Male C57Bl/6J mice were tested for respiratory effects using automated, computer-controlled Comprehensive Lab Animal Monitoring System (CLAMS) apparatus. Mice (n = 8) were habituated in closed apparatus cages (23.5 × 11.5 × 13 cm^3) for 30 min before being administrated with the hit i.p. at the experimented high dose of 3.0 mg/kg, and an even higher dose at 15 times of the ED50 value, 10.6 mg/kg, i.p. Mice were then returned to chambers, and their respiration rate (breaths/min) was measured for […] in 30 s intervals using a pressure transducer built into the enclosed, sealed CLAMS cage. The resultant change in pressure during mouse breathing was recorded to reveal the respiration rate (breaths/min).
(§3) Infrared beams located in the floor measured locomotion as the number of beam breaks. Respiration and locomotive data were averaged over 20 min periods for 120 min post-injection of the test compound. Data are presented as % vehicle response ± SEM, ambulation or breaths per minute.

For series [4], the system named is C57BL/6J mice. Put plainly: Ambulation (hyperlocomotion) in CLAMS apparatus. The series is classed as in vivo, mouse. The settings on record: for Effect on ambulation (hyperlocomotion): CycloAnt 3 or 10.6 mg/kg i.p., morphine 10 or 30 mg/kg i.p., 120 min. As for the experimental part:
as §2, §3

Series [5] concerns mice. Briefly: Antinociceptive tolerance after chronic dosing, 55 °C WWTW. Conditions: twice daily for 4 days, morphine 10 mg/kg (tested 30 min), CycloAnt 3 mg/kg i.p. (tested 20 min). The series is classed as in vivo, mouse. As for the experimental part:
as §1

Another series deals with DOR (Homo sapiens, UniProt P41143). Briefly: SAFETYscan cAMP assay, agonist mode, cells overexpressing DOR. The settings on record: cells overexpressing receptor, read-out: DOR agonism EC50. The series is classed as cell-based. Here is the method:
(§4) The potential interaction of CycloAnt with a panel of 47 protein targets, including GPCRs, kinases, nuclear hormone receptors, ion channels, and enzymes, was assessed by assays included in the SAFETYscan service from Eurofins DiscoverX. CycloAnt was tested in both agonist and antagonist modes for each representative GPCRs (see Supplemental Material S9–S11).
(§5) CycloAnt interactions with a broad set of molecular targets were determined with the Safety47 Panel Dose Response, using the SAFETYscan provided by Eurofins DiscoverX. This panel utilizes 78 assays at 47 protein targets, including GPCRs, kinases, nuclear hormone receptors, ion channels, and enzymes. […] CycloAnt only interacted with MOR and DOR in the panel, showing agonist activity at both receptors using the cAMP assay. […] This discrepancy on the function at DOR may be accounted for receptor reserve, as a very weak partial agonist/antagonist can appear as a full agonist when receptor reserve is present. […] Regardless, consistent with the SAFETYscan results, CycloAnt was not found to produce any significant biological activity at any other targets in this study than DOR and MOR.
On the technique in general: cAMP levels reflect the balance of adenylyl cyclase and phosphodiesterase activity.

For series [6], the target named is T1, MOR (Homo sapiens, UniProt P35372). Put plainly: SAFETYscan cAMP assay, agonist mode, cells overexpressing MOR. The series is classed as cell-based. The settings on record: cells overexpressing receptor, read-out: MOR agonism EC50. Here is the method: as §4, §5
The subject of series [7] is panel of 47 protein targets, including GPCRs, kinases, nuclear hormone receptors, ion channels, and enzymes. Briefly: Eurofins DiscoverX SAFETYscan Safety47 panel, agonist and antagonist modes. The settings on record: 78 assays at 47 targets, other than MOR and DOR. Here is the method: as §4, §5
The target of series [8] is T1, MOR. Conditions: receptor-binding assay; cited from earlier work. From the text:
However, that cyclic peptide has a sequence of Tyr-[D-Lys-Dap(Ant)-Tyr-Gly], differing from the sequence Tyr-[D-Lys-Dap(Ant)-Thr-Gly] identified in this study. The di ...

The next series deals with C57BL/6J male mice. Briefly: 55 °C warm water tail-withdrawal (WWTW) assay, antinociception. The series is classed as in vivo, mouse. Here is the method:
The 55 °C warm water tail-withdrawal assay was performed, as previously described, [52] to screen the library. Mixed-based samples were dissolved at a concentration of 5 mg/mL in saline containing 10% DMSO. Each sample was given to mice (n = 8) intraperitoneally (i.p.) at a dose of 5 mg/kg. At 0.5, 1, 2, 3.5, 5, 8 h post-administration of the samples, the tail-withdrawal latencies were measured for each sample. The average response time to tail-withdrawal at the six time points were then combined. The combined response time to withdrawal tail was used to determine the antinociceptive effect of each sample. A cutoff of 15 s was used to avoid tissue damage; those mice failing to withdraw their tails within this time were assigned a maximal antinociceptive score of 100%.
To determine antinociceptive activity of individual compounds, the tail-withdrawal latency was determined repeatedly every 10 min, following administration of the compounds for 1 h or until latencies returned to baseline values. At each time point, antinociception was calculated according to the following formula: % antinociception = 100 × (test latency − control latency)/(15 − control latency). Tail-withdrawal data points are the means of 8–16 mice, unless otherwise indicated, with SEM shown by error bars.
Percent antinociception was used to determine within-group effects and to allow comparison to baseline latency in tail-withdrawal experiments. The statistical significance of differences between ED50 values was determined by evaluation of the ED50 value shift via nonlinear regression modeling with Prism 10.0 software. Significant differences in behavioral data were analyzed by ANOVA (one-way or two-way with repeated measures (RM), as appropriate). Significant results were further analyzed with Sidak’s, Tukey’s, or Dunnett’s multiple comparison post hoc tests, as appropriate. All data are presented as mean ± SEM, with significance set at p < 0.05.

T1 sequence (P35372 whole entry): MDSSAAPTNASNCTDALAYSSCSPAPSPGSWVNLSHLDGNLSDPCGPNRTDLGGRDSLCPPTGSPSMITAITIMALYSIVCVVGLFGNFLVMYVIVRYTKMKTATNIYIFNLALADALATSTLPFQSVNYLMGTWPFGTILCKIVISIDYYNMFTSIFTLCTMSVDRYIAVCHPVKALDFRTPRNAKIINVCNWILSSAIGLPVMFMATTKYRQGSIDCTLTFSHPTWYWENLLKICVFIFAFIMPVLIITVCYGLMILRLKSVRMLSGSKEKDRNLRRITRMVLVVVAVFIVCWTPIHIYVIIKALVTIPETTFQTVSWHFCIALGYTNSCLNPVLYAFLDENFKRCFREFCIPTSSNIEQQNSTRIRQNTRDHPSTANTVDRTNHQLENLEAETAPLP
Sequence of DOR (P41143 whole entry): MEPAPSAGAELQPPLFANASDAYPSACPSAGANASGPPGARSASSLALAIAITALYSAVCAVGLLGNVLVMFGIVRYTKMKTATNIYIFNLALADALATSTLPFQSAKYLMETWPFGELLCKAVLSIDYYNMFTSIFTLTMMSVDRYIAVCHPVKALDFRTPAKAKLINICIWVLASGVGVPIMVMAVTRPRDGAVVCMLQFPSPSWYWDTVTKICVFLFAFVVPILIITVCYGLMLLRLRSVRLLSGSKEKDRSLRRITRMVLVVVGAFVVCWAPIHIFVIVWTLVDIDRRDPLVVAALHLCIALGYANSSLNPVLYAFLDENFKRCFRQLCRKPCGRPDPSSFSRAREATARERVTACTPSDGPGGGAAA

With `C[C@@H](O)[C@@H]1NC(=O)[C@H](CNC(=O)c2ccccc2N)NC(=O)[C@H](NC(=O)[C@@H](N)Cc2ccc(O)cc2)CCCCNC(=O)CNC1=O` [CycloAnt, Tyr-[D-Lys-Dap(Ant)-Thr-Gly]] (H-Y[dK][Dap](2Abz)TG; lactam 2-C), in the series with mice [1], the “Day 5 tail withdrawal latency, 48 °C warm water stimulus” value is reported as 9.02 ± 0.83 s and the “Opioid-induced hyperalgesia after chronic administration” value was “did not induce significant OIH”. In the series with mice [2], the “Forepaw Tremor” value is reported as 23.7 †, the “Forepaw Licking Frequency” value was 11.2 †, the “Jumping Frequency” value is 1.89 † and the “Number of soft stools” value is given as 6.67 *. In addition, in the series with mice [2], the Presence of diarrhea entry is “yes”, the “Rearing Frequency” value is on record as 17.8 *, the Straightening is 1.22 and the “Teeth Chattering Frequency” value is recorded as 0 †. The “Wet Dog Shakes” value in the series with mice [2] worked out at 2.22. For the same compound, the “Effect on breathing rate compared to vehicle” value in the series with C57BL/6J mice [3] was “did not significantly impair breathing”. Also, in the series on C57BL/6J mice [4], the “Effect on ambulation (hyperlocomotion)” value is reported as “induced significant hyperlocomotor activity”. In the series on C57BL/6J mice [4] (after 20 min to end of testing period, p < 0.05 Tukey), the “Ambulation compared with morphine” value is “significantly less than those induced by morphine”. Also, the “Antinociceptive tolerance on day 5” value in the series with mice [5] was “significant reductions in the tail-withdrawal latency”. Besides, the EC50 (in general, the concentration at which the effect is half-maximal) at DOR was determined as 3.36 nM. The 50% effective concentration (EC50) at MOR [6] came to 14 nM. Further, the “Agonist or antagonist activity at other panel targets” value in series [7] is “did not produce agonist or antagonist activity at any other target tested in this panel”.

With Tyr-[D-Lys-Dap(Ant)-Tyr-Gly], at MOR [8], the “Binding affinity for the MOR” value is recorded as 14 nM.

Take `CN1CC[C@]23c4c5ccc(O)c4O[C@H]2[C@@H](O)C=C[C@H]3[C@H]1C5` [morphine, reference compound]: in the series on mice [1], the “Day 5 tail withdrawal latency, 48 °C warm water stimulus” value amounted to 4.35 ± 0.47 s and the “Opioid-induced hyperalgesia after chronic administration” value is “induced significant hyperalgesia”. Also, in the series on mice [2], the “Forepaw Tremor” value is on record as 66 *, the “Forepaw Licking Frequency” value was 1.7 *, the “Jumping Frequency” value is on record as 41.6 * and the “Number of soft stools” value is 5.4 *. In the series with mice [2], the Presence of diarrhea result is listed as “yes”, the “Rearing Frequency” value is 22.2 *, the Straightening amounted to 1.1 and the “Teeth Chattering Frequency” value is reported as 9.5 *. Besides, the “Wet Dog Shakes” value in the series on mice [2] was found to be 1.3. Further, the ED50 (usually the midpoint of the dose-response relation) in the series with C57BL/6J male mice (Mus musculus, ip, 0.5 h, i.p., male C57BL/6J mice, 55 °C WWTW, at peak effect (morphine 30 min), read-out: Antinociceptive ED50 (and 95% confidence interval)) came out at 4.12 mg/kg. The “Time of peak antinociception after administration” value in the series on C57BL/6J male mice (i.p., 55 °C WWTW) was found to be 30 min. The “Effect on breathing rate compared to vehicle” value with C57BL/6J mice [3] is “produced significant dose and time-dependent respiratory depression”. The “Effect on ambulation (hyperlocomotion)” value in the series with C57BL/6J mice [4] was “significantly increased ambulation”. Besides, in the series with mice [5], the “Antinociceptive tolerance on day 5” value was “significant reductions in the tail-withdrawal latency”.

“Leu-[D-Lys-Dap(Ant)-Thr-Gly] (lariat or depsi) [CycloAnt-Leu, side-to-tail cyclic pentapeptide analog]”: the “Duration of significant antinociception compared to vehicle” value in the series on C57BL/6J male mice (CycloAnt 3 mg/kg i.p., CycloAnt-Leu 100 mg/kg i.p., p < 0.05 Dunnett) is 50 min. Also, in the series on C57BL/6J male mice (i.p., 55 °C WWTW), the “Fold less potent than morphine (ED50)” value was 9.3 fold and the “Time of peak antinociception after administration” value is on record as no more than 20 min. In addition, in the series on C57BL/6J male mice (i.p., male C57BL/6J mice, 55 °C WWTW, at peak effect (morphine 30 min)), the “Antinociceptive ED50 (and 95% confidence interval)” value was 38.3 (18.7–127.1) mg/kg.

(Values after publication PMC10674865, “Identification and Pharmacological Characterization of a Low-Liability Antinociceptive Bifunctional MOR/DOR Cyclic Peptide” (Molecules, 2023).)
